# Experimental data taken from US8952024B2, “Herbicidal pyrimidone derivatives” (E I du Pont de Nemours and Company, priority 2009, dated 2015).
# Experiments:
# Format in all cases: in vivo
# [1] = tested on: winter barley (Hordeum vulgare); assay: Test B postemergence plant response; conditions: for Barley plant response rating (0 to 100 scale): 62 g ai/ha, postemergence, 0 is no effect, 100 is complete control; for Plant response rating, Barley: Postemergence
# Procedure, shortened: (§1)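 Plants at the 1- to 4-leaf stage (2 to 18 cm tall), grown in pots of peat moss/vermiculite medium with wetting agent and starter nutrients, received postemergence applications of test chemicals. After 13 to 15 days in a greenhouse, injury was rated visually against untreated controls on a 0 (no effect) to 100 (complete control) scale.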
# [2] = tested on: canarygrass (Phalaris minor); assay: Test B postemergence plant response; conditions: for Canarygrass plant response rating (0 to 100 scale): 62 g ai/ha, postemergence, 0 is no effect, 100 is complete control; for Plant response rating, Canarygrass: Postemergence
# Procedure, shortened: as §1
# [3] = tested on: windgrass (Apera spica-venti); assay: Test B postemergence plant response; conditions: for Windgrass plant response rating (0 to 100 scale): 62 g ai/ha, postemergence, 0 is no effect, 100 is complete control; for Plant response rating, Windgrass: Postemergence
# Procedure, shortened: as §1
# [4] = tested on: chickweed (Stellaria media); assay: Test B postemergence plant response; conditions: for Chickweed plant response rating (0 to 100 scale): 62 g ai/ha, postemergence, 0 is no effect, 100 is complete control; for Plant response rating, Chickweed: Postemergence
# Procedure, shortened: as §1
# [5] = tested on: barnyardgrass (Echinochloa crus-galli); assay: Test A pre-/postemergence plant response
# Procedure, shortened: (§2)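 Seeds planted in loam soil/sand blend; test chemicals in non-phytotoxic solvent mixture with surfactant applied as directed soil spray preemergence and, concurrently, postemergence to plants 2–10 cm tall at one- to two-leaf stage. Greenhouse ~10 days; visual injury vs untreated controls, 0 (no effect) to 100 (complete control).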
# corn (Zea mays) = assay: Test A pre-/postemergence plant response
# Procedure, shortened: as §2
# [6] = tested on: velvetleaf (Abutilon theophrasti); assay: Test A pre-/postemergence plant response
# Procedure, shortened: as §2
# [7] = tested on: wheat (Triticum aestivum); assay: Test A pre-/postemergence plant response
# Procedure, shortened: as §2
# [8] = tested on: morningglory (Ipomoea spp.); assay: Test A pre-/postemergence plant response
# Procedure, shortened: as §2
# [9] = tested on: large crabgrass (Digitaria sanguinalis); assay: Test A pre-/postemergence plant response
# Procedure, shortened: as §2
# [10] = tested on: pigweed (Amaranthus retroflexus); assay: Test A pre-/postemergence plant response
# Procedure, shortened: as §2
# [11] = tested on: giant foxtail (Setaria faberii); assay: Test A pre-/postemergence plant response
# Procedure, shortened: as §2
# [12] = 31 g ai/ha, 0 to 100 scale (0 no effect, 100 complete control)
# [13] = 125 g ai/ha, scale 0 to 100 (0 no effect, 100 complete control)
# [14] = 250 g ai/ha, scale 0 to 100 (0 no effect, 100 complete control), 13 to 15 days
# [15] = Postemergence, 125 g ai/ha, 0 to 100 scale where 0 is no effect and 100 is complete control
# [16] = Postemergence, 500 g ai/ha, 0 to 100 scale, 0 = no effect, 100 = complete control, approx. ten days
# [17] = Preemergence, 125 g ai/ha, 0 to 100 scale, 0 = no effect, 100 = complete control
# [18] = Preemergence, 500 g ai/ha, visual injury, 0 to 100 scale (0 no effect, 100 complete control), approx. ten days
# [19] = Preemergence, 500 g ai/ha, 0 to 100 scale, 0 = no effect, 100 = complete control
smiles,measurement,setting,value
COCCn1c(-c2cccc(Cl)c2)ncc(C(=O)C2=C(O)CCCC2=O)c1=O [Compound 147],Barley plant response rating (0 to 100 scale),[1]; 13 to 15 days,0
same,"Plant response rating, Barley",[1]; [12],0
same,"Plant response rating, Barley",[1]; [13],0
same,"Plant response rating, Barley",[1]; [14],0
same,Canarygrass plant response rating (0 to 100 scale),[2]; 13 to 15 days,0
same,"Plant response rating, Canarygrass",[2]; [12],0
same,"Plant response rating, Canarygrass",[2]; [13],5
same,"Plant response rating, Canarygrass",[2]; [14],5
same,Windgrass plant response rating (0 to 100 scale),[3]; 13 to 15 days,50
same,"Plant response rating, Windgrass",[3]; [12],10
same,"Plant response rating, Windgrass",[3]; [13],55
same,"Plant response rating, Windgrass",[3]; [14],70
same,Chickweed plant response rating (0 to 100 scale),[4]; 13 to 15 days,90
same,"Plant response rating, Chickweed",[4]; [12],70
same,"Plant response rating, Chickweed",[4]; [13],98
same,"Plant response rating, Chickweed",[4]; [14],98
same,"Plant response rating, Barnyardgrass",[5]; [15],80
same,"Plant response rating, Barnyardgrass",[5]; [16],90
same,"Plant response rating, Barnyardgrass",[5]; [17],70
same,"Plant response rating, Barnyardgrass",[5]; [18],100
same,"Plant response rating, Corn",corn (Zea mays); [15],20
same,"Plant response rating, Corn",corn (Zea mays); [16],30
same,"Plant response rating, Corn",corn (Zea mays); [17],0
same,"Plant response rating, Corn",corn (Zea mays); [18],0
same,"Plant response rating, Velvetleaf",[6]; [15],100
same,"Plant response rating, Velvetleaf",[6]; [16],100
same,"Plant response rating, Velvetleaf",[6]; [17],80
same,"Plant response rating, Velvetleaf",[6]; [19],100
same,"Plant response rating, Wheat",[7]; [15],20
same,"Plant response rating, Wheat",[7]; [16],60
same,"Plant response rating, Wheat",[7]; [17],0
same,"Plant response rating, Wheat",[7]; [19],20
same,"Plant response rating, Morningglory",[8]; [15],100
same,"Plant response rating, Morningglory",[8]; [16],100
same,"Plant response rating, Morningglory",[8]; [17],40
same,"Plant response rating, Morningglory",[8]; [18],90
same,"Plant response rating, Crabgrass, Large",[9]; [15],80
same,"Plant response rating, Crabgrass, Large",[9]; [16],90
same,"Plant response rating, Crabgrass, Large",[9]; [17],100
same,"Plant response rating, Crabgrass, Large",[9]; [18],100
same,"Plant response rating, Pigweed",[10]; [15],100
same,"Plant response rating, Pigweed",[10]; [16],100
same,"Plant response rating, Pigweed",[10]; [17],90
same,"Plant response rating, Pigweed",[10]; [18],100
same,"Plant response rating, Foxtail, Giant",[11]; [15],70
same,"Plant response rating, Foxtail, Giant",[11]; [16],80
same,"Plant response rating, Foxtail, Giant",[11]; [17],70
same,"Plant response rating, Foxtail, Giant",[11]; [18],90
CCCn1c(-c2cc(F)cc(F)c2)ncc(C(=O)C2=C(O)CCCC2=O)c1=O [Compound 152],Barley plant response rating (0 to 100 scale),[1]; 13 to 15 days,45
same,"Plant response rating, Barley",[1]; [12],10
same,"Plant response rating, Barley",[1]; [13],85
same,"Plant response rating, Barley",[1]; [14],90
same,Canarygrass plant response rating (0 to 100 scale),[2]; 13 to 15 days,45
same,"Plant response rating, Canarygrass",[2]; [12],35
same,"Plant response rating, Canarygrass",[2]; [13],80
same,"Plant response rating, Canarygrass",[2]; [14],85
same,Windgrass plant response rating (0 to 100 scale),[3]; 13 to 15 days,70
same,"Plant response rating, Windgrass",[3]; [12],50
same,"Plant response rating, Windgrass",[3]; [13],85
same,"Plant response rating, Windgrass",[3]; [14],98
same,Chickweed plant response rating (0 to 100 scale),[4]; 13 to 15 days,65
same,"Plant response rating, Chickweed",[4]; [12],10
same,"Plant response rating, Chickweed",[4]; [13],90
same,"Plant response rating, Chickweed",[4]; [14],95
same,"Plant response rating, Barnyardgrass",[5]; [15],100
same,"Plant response rating, Barnyardgrass",[5]; [16],100
same,"Plant response rating, Barnyardgrass",[5]; [17],50
same,"Plant response rating, Barnyardgrass",[5]; [18],100
same,"Plant response rating, Corn",corn (Zea mays); [15],0
same,"Plant response rating, Corn",corn (Zea mays); [16],50
same,"Plant response rating, Corn",corn (Zea mays); [17],0
same,"Plant response rating, Corn",corn (Zea mays); [18],30
same,"Plant response rating, Velvetleaf",[6]; [15],100
same,"Plant response rating, Velvetleaf",[6]; [16],100
same,"Plant response rating, Velvetleaf",[6]; [17],60
same,"Plant response rating, Velvetleaf",[6]; [19],100
same,"Plant response rating, Wheat",[7]; [15],20
same,"Plant response rating, Wheat",[7]; [16],70
same,"Plant response rating, Wheat",[7]; [17],20
same,"Plant response rating, Wheat",[7]; [19],50
same,"Plant response rating, Morningglory",[8]; [15],100
same,"Plant response rating, Morningglory",[8]; [16],100
same,"Plant response rating, Morningglory",[8]; [17],60
same,"Plant response rating, Morningglory",[8]; [18],80
same,"Plant response rating, Crabgrass, Large",[9]; [15],90
same,"Plant response rating, Crabgrass, Large",[9]; [16],100
same,"Plant response rating, Crabgrass, Large",[9]; [17],90
same,"Plant response rating, Crabgrass, Large",[9]; [18],100
same,"Plant response rating, Pigweed",[10]; [15],100
same,"Plant response rating, Pigweed",[10]; [16],100
same,"Plant response rating, Pigweed",[10]; [17],100
same,"Plant response rating, Pigweed",[10]; [18],100
same,"Plant response rating, Foxtail, Giant",[11]; [15],80
same,"Plant response rating, Foxtail, Giant",[11]; [16],100
same,"Plant response rating, Foxtail, Giant",[11]; [17],60
same,"Plant response rating, Foxtail, Giant",[11]; [18],90
